What was measured:
Format in all cases: in vivo
[1] = tested on: Spodoptera littoralis; test: Spodoptera littoralis (Egyptian Cotton Leafworm) cotton leaf disc spray test; conditions: foliar, 72 h, 200 ppm spray on cotton leaf discs, L1 larvae, mortality, feeding behavior, growth regulation 3 DAT
[2] = tested on: Heliothis virescens; test: Heliothis virescens (Tobacco Budworm) egg test on artificial diet; conditions: 96 h, 200 ppm (concentration in well 18 ppm), eggs 0-24 h old on artificial diet, 4 days, egg mortality, larval mortality, growth regulation
[3] = tested on: Plutella xylostella; test: Plutella xylostella (Diamond Back Moth) artificial diet MTP test; conditions: 144 h, 200 ppm (concentration in well 18 ppm), L2 larvae, 6 days, larval mortality, growth regulation
[4] = tested on: Diabrotica balteata; test: Diabrotica balteata (Corn Root Worm) artificial diet MTP test; conditions: 120 h, 200 ppm (concentration in well 18 ppm), L2 larvae, 5 days, larval mortality, growth regulation

| Compound | pest or weed control at 200 ppm [1] [%] | pest or weed control at 200 ppm [2] [%] | pest or weed control at 200 ppm [3] [%] | pest or weed control at 200 ppm [4] [%] |
| --- | --- | --- | --- | --- |
| CCc1cc(C(F)(C(F)(F)F)C(F)(F)C(F)(F)F)cc(C)c1NC(=O)c1cccc(NC(=O)c2ccc(Cl)s2)c1OC (stereo not shown) [A21] | ≥ 80 | ≥ 80 | ≥ 80 | – |
| COc1c(NC(=O)c2cc(Cl)ccc2F)cccc1C(=O)Nc1c(Cl)cc(C(F)(C(F)(F)F)C(F)(F)C(F)(F)F)cc1Br (stereo not shown) [B10] | ≥ 80 | ≥ 80 | ≥ 80 | – |
| COc1c(NC(=O)c2ccco2)cccc1C(=O)Nc1c(Cl)cc(C(F)(C(F)(F)F)C(F)(F)C(F)(F)F)cc1Br (stereo not shown) [B12] | ≥ 80 | ≥ 80 | ≥ 80 | – |
| COc1c(NC(=O)c2ccccc2OC(F)(F)F)cccc1C(=O)Nc1c(Cl)cc(C(F)(C(F)(F)F)C(F)(F)C(F)(F)F)cc1Br (stereo not shown) [B16] | ≥ 80 | – | ≥ 80 | – |
| COc1ccccc1C(=O)Nc1cccc(C(=O)Nc2c(Cl)cc(C(F)(C(F)(F)F)C(F)(F)C(F)(F)F)cc2Br)c1OC (stereo not shown) [B17] | ≥ 80 | ≥ 80 | – | – |
| COc1c(NC(=O)c2cc(C(F)(F)F)ccc2F)cccc1C(=O)Nc1c(Cl)cc(C(F)(C(F)(F)F)C(F)(F)C(F)(F)F)cc1Br (stereo not shown) [B24] | ≥ 80 | – | – | – |
| COc1c(NC(=O)c2ccc(-n3cccc3)cc2)cccc1C(=O)Nc1c(Cl)cc(C(F)(C(F)(F)F)C(F)(F)C(F)(F)F)cc1Br (stereo not shown) [B30] | ≥ 80 | ≥ 80 | – | ≥ 80 |
| COc1c(NC(=O)c2ccc(-c3csnn3)cc2)cccc1C(=O)Nc1c(Cl)cc(C(F)(C(F)(F)F)C(F)(F)C(F)(F)F)cc1Br (stereo not shown) [B31] | ≥ 80 | ≥ 80 | ≥ 80 | – |
| COc1c(NC(=O)c2csnn2)cccc1C(=O)Nc1c(Cl)cc(C(F)(C(F)(F)F)C(F)(F)C(F)(F)F)cc1Br (stereo not shown) [B39] | ≥ 80 | ≥ 80 | ≥ 80 | – |
| COc1c(NC(=O)c2ccc(-c3ccccn3)s2)cccc1C(=O)Nc1c(Cl)cc(C(F)(C(F)(F)F)C(F)(F)C(F)(F)F)cc1Br (stereo not shown) [B48] | ≥ 80 | ≥ 80 | ≥ 80 | – |
| COc1c(NC(=O)c2sccc2Br)cccc1C(=O)Nc1c(Cl)cc(C(F)(C(F)(F)F)C(F)(F)C(F)(F)F)cc1Br (stereo not shown) [B57] | – | – | ≥ 80 | – |
| COc1c(NC(=O)c2cc(Cl)cc(I)c2)cccc1C(=O)Nc1c(Cl)cc(C(F)(C(F)(F)F)C(F)(F)C(F)(F)F)cc1Br (stereo not shown) [B68] | ≥ 80 | ≥ 80 | – | – |
| COc1c(NC(=O)c2cc(Cl)cc(C(F)(F)F)c2)cccc1C(=O)Nc1c(Cl)cc(C(F)(C(F)(F)F)C(F)(F)C(F)(F)F)cc1Br (stereo not shown) [B70] | ≥ 80 | ≥ 80 | – | – |
| COc1c(NC(=O)c2ncccn2)cccc1C(=O)Nc1c(Cl)cc(C(F)(C(F)(F)F)C(F)(F)C(F)(F)F)cc1Br (stereo not shown) [B71] | ≥ 80 | – | ≥ 80 | – |
| COc1c(NC(=O)c2ccc(F)c([N+](=O)[O-])c2)cccc1C(=O)Nc1c(Cl)cc(C(F)(C(F)(F)F)C(F)(F)C(F)(F)F)cc1Br (stereo not shown) [B77] | ≥ 80 | ≥ 80 | ≥ 80 | – |
| COc1c(NC(=O)c2sccc2C)cccc1C(=O)Nc1c(Cl)cc(C(F)(C(F)(F)F)C(F)(F)C(F)(F)F)cc1Br (stereo not shown) [B88] | ≥ 80 | ≥ 80 | ≥ 80 | – |
| COc1c(NC(=O)c2ocnc2C)cccc1C(=O)Nc1c(Cl)cc(C(F)(C(F)(F)F)C(F)(F)C(F)(F)F)cc1Br (stereo not shown) [B94] | ≥ 80 | ≥ 80 | ≥ 80 | – |
| COCc1nc(C)c(C(=O)Nc2cccc(C(=O)Nc3c(Cl)cc(C(F)(C(F)(F)F)C(F)(F)C(F)(F)F)cc3Br)c2OC)s1 (stereo not shown) [B95] | ≥ 80 | ≥ 80 | ≥ 80 | – |
| COc1c(NC(=O)c2cc([N+](=O)[O-])c(Cl)cc2F)cccc1C(=O)Nc1c(Cl)cc(C(F)(C(F)(F)F)C(F)(F)C(F)(F)F)cc1Br (stereo not shown) [B102] | ≥ 80 | ≥ 80 | ≥ 80 | – |
| COc1c(NC(=O)c2sc(Cl)nc2C)cccc1C(=O)Nc1c(Cl)cc(C(F)(C(F)(F)F)C(F)(F)C(F)(F)F)cc1Br (stereo not shown) [B105] | ≥ 80 | – | ≥ 80 | – |
| COc1c(NC(=O)c2ccc(S(C)(=O)=O)c(OC)c2Cl)cccc1C(=O)Nc1c(Cl)cc(C(F)(C(F)(F)F)C(F)(F)C(F)(F)F)cc1Br (stereo not shown) [B114] | ≥ 80 | ≥ 80 | ≥ 80 | – |
| COc1c(NC(=O)c2ncc(C(F)(F)F)cc2Cl)cccc1C(=O)Nc1c(Cl)cc(C(F)(C(F)(F)F)C(F)(F)C(F)(F)F)cc1Br (stereo not shown) [B141] | ≥ 80 | ≥ 80 | ≥ 80 | – |
| COc1c(NC(=O)c2c(C)nn(C)c2Cl)cccc1C(=O)Nc1c(Cl)cc(C(F)(C(F)(F)F)C(F)(F)C(F)(F)F)cc1Br (stereo not shown) [B142] | ≥ 80 | – | – | – |

| Compound | pest or weed control at 200 ppm [1] [%] | pest or weed control at 200 ppm [2] [%] | pest or weed control at 200 ppm [3] [%] | pest or weed control at 200 ppm [4] [%] |
| --- | --- | --- | --- | --- |
| COc1c(NC(=O)c2csc(Cl)c2OC)cccc1C(=O)Nc1c(Cl)cc(C(F)(C(F)(F)F)C(F)(F)C(F)(F)F)cc1Br (stereo not shown) [B147] | ≥ 80 | – | – | – |
| COc1c(NC(=O)c2cc([N+](=O)[O-])ccc2F)cccc1C(=O)Nc1c(Cl)cc(C(F)(C(F)(F)F)C(F)(F)C(F)(F)F)cc1Br (stereo not shown) [B148] | ≥ 80 | ≥ 80 | ≥ 80 | – |
| COc1c(NC(=O)c2cn(C)nc2C(F)(F)F)cccc1C(=O)Nc1c(Cl)cc(C(F)(C(F)(F)F)C(F)(F)C(F)(F)F)cc1Br (stereo not shown) [B152] | ≥ 80 | ≥ 80 | ≥ 80 | – |
| COc1c(NC(=O)c2c(C)noc2C)cccc1C(=O)Nc1c(Cl)cc(C(F)(C(F)(F)F)C(F)(F)C(F)(F)F)cc1Br (stereo not shown) [B157] | ≥ 80 | ≥ 80 | – | – |
| COc1c(NC(=O)c2cc(Cl)cc(Cl)c2O)cccc1C(=O)Nc1c(Cl)cc(C(F)(C(F)(F)F)C(F)(F)C(F)(F)F)cc1Br (stereo not shown) [B160] | – | – | ≥ 80 | – |
| COc1cccc(OC)c1C(=O)Nc1cccc(C(=O)Nc2c(Cl)cc(C(F)(C(F)(F)F)C(F)(F)C(F)(F)F)cc2Br)c1OC (stereo not shown) [B164] | – | – | ≥ 80 | – |
| COc1c(NC(=O)c2ccc([N+](=O)[O-])c(O)c2)cccc1C(=O)Nc1c(Cl)cc(C(F)(C(F)(F)F)C(F)(F)C(F)(F)F)cc1Br (stereo not shown) [B181] | – | – | – | ≥ 80 |
| COc1c(NC(=O)c2ccc(C)cc2Cl)cccc1C(=O)Nc1c(Cl)cc(C(F)(C(F)(F)F)C(F)(F)C(F)(F)F)cc1Br (stereo not shown) [B182] | ≥ 80 | ≥ 80 | ≥ 80 | – |
| COc1c(NC(=O)c2cc(Cl)sc2Cl)cccc1C(=O)Nc1c(Cl)cc(C(F)(C(F)(F)F)C(F)(F)C(F)(F)F)cc1Br (stereo not shown) [B186] | ≥ 80 | – | – | – |
| COc1c(NC(=O)c2ncc(Br)cn2)cccc1C(=O)Nc1c(Cl)cc(C(F)(C(F)(F)F)C(F)(F)C(F)(F)F)cc1Br (stereo not shown) [B187] | ≥ 80 | – | ≥ 80 | ≥ 80 |
| COc1c(NC(=O)c2ncccc2C(F)(F)F)cccc1C(=O)Nc1c(Cl)cc(C(F)(C(F)(F)F)C(F)(F)C(F)(F)F)cc1Br (stereo not shown) [B188] | ≥ 80 | ≥ 80 | – | – |
| COc1c(NC(=O)c2cc(Cl)ccc2F)cccc1C(=O)Nc1c(Cl)cc(C(F)(C(F)(F)F)C(F)(F)C(F)(F)F)cc1Cl (stereo not shown) [C10] | ≥ 80 | ≥ 80 | – | ≥ 80 |
| COc1c(NC(=O)c2ccccc2OC(F)(F)F)cccc1C(=O)Nc1c(Cl)cc(C(F)(C(F)(F)F)C(F)(F)C(F)(F)F)cc1Cl (stereo not shown) [C16] | – | ≥ 80 | – | – |
| COc1ccccc1C(=O)Nc1cccc(C(=O)Nc2c(Cl)cc(C(F)(C(F)(F)F)C(F)(F)C(F)(F)F)cc2Cl)c1OC (stereo not shown) [C17] | – | ≥ 80 | – | – |
| COc1c(NC(=O)c2ccco2)cccc1C(=O)Nc1c(Cl)cc(C(F)(C(F)(F)F)C(F)(F)F)cc1Cl [E10] | ≥ 80 | ≥ 80 | ≥ 80 | – |
| COc1c(NC(=O)c2ccccc2OC(F)(F)F)cccc1C(=O)Nc1c(Cl)cc(C(F)(C(F)(F)F)C(F)(F)F)cc1Cl [E14] | ≥ 80 | ≥ 80 | ≥ 80 | – |
| COc1ccccc1C(=O)Nc1cccc(C(=O)Nc2c(Cl)cc(C(F)(C(F)(F)F)C(F)(F)F)cc2Cl)c1OC [E15] | ≥ 80 | ≥ 80 | ≥ 80 | – |
| COc1c(NC(=O)c2ccccc2C)cccc1C(=O)Nc1c(C)cc(C(F)(C(F)(F)F)C(F)(F)C(F)(F)F)cc1C (stereo not shown) [F2] | ≥ 80 | ≥ 80 | ≥ 80 | – |
| COc1c(NC(=O)c2ccco2)cccc1C(=O)Nc1c(C)cc(C(F)(C(F)(F)F)C(F)(F)C(F)(F)F)cc1C (stereo not shown) [F4] | ≥ 80 | ≥ 80 | ≥ 80 | – |
| COc1c(NC(=O)c2cccc(C)c2C)cccc1C(=O)Nc1c(C)cc(C(F)(C(F)(F)F)C(F)(F)C(F)(F)F)cc1C (stereo not shown) [F11] | – | – | ≥ 80 | – |
| COc1c(NC(=O)c2ccc(Cl)cc2F)cccc1C(=O)Nc1c(C)cc(C(F)(C(F)(F)F)C(F)(F)C(F)(F)F)cc1C (stereo not shown) [F13] | ≥ 80 | ≥ 80 | – | – |
| CCc1cc(C(F)(C(F)(F)F)C(F)(F)F)cc(C)c1NC(=O)c1cccc(NC(=O)c2ccc(C#N)cc2Cl)c1OC [J1] | – | – | ≥ 80 | ≥ 80 |

Reference: US20120295907A1, “INSECTICIDAL COMPOUNDS” (SYNGENTA CROP PROTECTION, LLC, priority 2009, published 2012)
